Experimental data published in patent US9480259B2, “Pyrazolopyrans having herbicidal and pharmaceutical properties” (BASF SE, priority 2012, dated 2016).

Target: Arabidopsis thaliana SHMT
Assay: SHMT activity assay (ED50 SHMT), coupled with N5,N10-CH2-THF dehydrogenase, NADH at 340 nm
Type: biochemical
Summary of the method: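 His-tagged SHMT purified on Ni-NTA. NADH formation followed at 340 nm for 30 min; ED50 from inhibition of initial velocity.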

[1] = Arabidopsis thaliana SHMT enzyme assay, values given as upper bounds
[2] = inhibition of initial velocity of Arabidopsis thaliana SHMT

| EC50 [1] [nM] | EC50 [2] [nM] | SMILES |
| --- | --- | --- |
| < 10 | – | Cc1n[nH]c2c1C(c1ccc(CCCC#N)c(Cl)c1)(C1CCC1)C(C#N)=C(N)O2 (stereo not drawn) [Compound 2.673] |
| < 10 | – | Cc1n[nH]c2c1C(c1cc(Cl)cc(Cl)c1)(C1CC(F)C1)C(C#N)=C(N)O2 (stereo not drawn) [Compound 2.674] |
| < 100 | – | COC(=O)c1ccc(-c2cc(C#N)cc(C3(C4(F)COC4)C(C#N)=C(N)Oc4[nH]nc(C)c43)c2)s1 (stereo not drawn) [Compound 2.676] |
| < 10 | – | Cc1n[nH]c2c1C(c1cc(Cl)cc(CCCc3nnn[nH]3)c1)(C1CCC1)C(C#N)=C(N)O2 (stereo not drawn) [Compound 2.677] |
| < 10 | – | Cc1n[nH]c2c1C(c1ccc(CCCc3nnn[nH]3)c(Cl)c1)(C1CCC1)C(C#N)=C(N)O2 (stereo not drawn) [Compound 2.678] |
| < 10 | – | COC(=O)c1csc(-c2cc(C#N)cc(C3(C(C)C)C(C#N)=C(N)Oc4[nH]nc(C)c43)c2)c1 (stereo not drawn) [Compound 2.679] |
| < 1000 | – | Cc1n[nH]c2c1C(c1cc(C#N)cc(-c3ccc(C(=O)O)s3)c1)(C1(F)COC1)C(C#N)=C(N)O2 (stereo not drawn) [Compound 2.680] |
| < 10000 | – | Cc1n[nH]c2c1C(c1cc(C#N)cc(-c3ccc(C(=O)O)o3)c1)(C1(F)COC1)C(C#N)=C(N)O2 (stereo not drawn) [Compound 2.681] |
| < 10 | – | COC(=O)c1csc(-c2cc(C#N)cc(C3(C4CCC4)C(C#N)=C(N)Oc4[nH]nc(C)c43)c2)c1 (stereo not drawn) [Compound 2.682] |
| < 10 | – | Cc1n[nH]c2c1C(c1cc(C#N)cc(-c3cc(C(=O)O)cs3)c1)(C1CCC1)C(C#N)=C(N)O2 (stereo not drawn) [Compound 2.683] |
| < 10 | – | Cc1n[nH]c2c1C(c1cc(C#N)cc(-c3cc(C(=O)O)co3)c1)(C1CCC1)C(C#N)=C(N)O2 (stereo not drawn) [Compound 2.684] |
| < 10 | – | Cc1n[nH]c2c1C(c1cc(Br)cc(Br)c1)(C(C)F)C(C#N)=C(N)O2 (stereo not drawn) [Compound 2.685] |
| < 100 | – | Cc1n[nH]c2c1C(c1cc(C#N)cc(-c3cc(C(=O)O)cs3)c1)(C(C)C)C(C#N)=C(N)O2 (stereo not drawn) [Compound 2.686] |
| < 100 | – | Cc1n[nH]c2c1C(c1cc(C#N)cc(C#N)c1)(C(C)F)C(C#N)=C(N)O2 (stereo not drawn) [Compound 2.687] |
| < 1000 | – | Cc1n[nH]c2c1C(c1cc(CN)cc(N(C)C(=O)CCCC(=O)O)c1)(C(C)C)C(C#N)=C(N)O2 (stereo not drawn) [Compound 2.689] |
| < 1000 | – | Cc1n[nH]c2c1C(c1cc(-c3nnn[nH]3)cc(N(C)C(=O)CCCC#N)c1)(C1CCC1)C(C#N)=C(N)O2 (stereo not drawn) [Compound 2.690] |
| < 100 | – | Cc1n[nH]c2c1C(c1cc(C#N)cc(N(C)Cc3nnn[nH]3)c1)(C1CCC1)C(C#N)=C(N)O2 (stereo not drawn) [Compound 2.691] |
| < 1000 | – | Cc1n[nH]c2c1C(c1cc(-c3nnn[nH]3)cc(N(C)CCC#N)c1)(C1CCC1)C(C#N)=C(N)O2 (stereo not drawn) [Compound 2.692] |
| < 100 | – | Cc1n[nH]c2c1C(c1cc(C#N)cc(N(C)CC(=O)O)c1)(C1CCC1)C(C#N)=C(N)O2 (stereo not drawn) [Compound 2.693] |
| < 10 | – | Cc1n[nH]c2c1C(c1cc(C#N)cc(N(C)C(=O)CCCC(=O)O)c1)(C(C)C)C(C#N)=C(N)O2 (stereo not drawn) [Compound 2.694] |
| < 100 | – | Cc1n[nH]c2c1C(c1cc(C#N)cc(N(C)CCCC(=O)O)c1)(C1CCC1)C(C#N)=C(N)O2 (stereo not drawn) [Compound 2.695] |
| < 10 | – | Cc1n[nH]c2c1C(c1cc(Cl)cc(N(C)C(=O)CC#N)c1)(C1CCC1)C(C#N)=C(N)O2 (stereo not drawn) [Compound 2.696] |
| < 100 | – | Cc1n[nH]c2c1C(c1cc(Cl)cc(N(C)C(=O)CCC#N)c1)(C1CCC1)C(C#N)=C(N)O2 (stereo not drawn) [Compound 2.697] |

| EC50 [1] [nM] | EC50 [2] [nM] | SMILES |
| --- | --- | --- |
| < 100 | – | Cc1n[nH]c2c1C(c1cc(Cl)cc(N(C)C(=O)CCc3nnn[nH]3)c1)(C1CCC1)C(C#N)=C(N)O2 (stereo not drawn) [Compound 2.698] |
| < 100 | – | Cc1n[nH]c2c1C(c1cc(Cl)cc(N(C)C(=O)Cc3nnn[nH]3)c1)(C1CCC1)C(C#N)=C(N)O2 (stereo not drawn) [Compound 2.699] |
| < 100 | – | Cc1n[nH]c2c1C(c1cc(Cl)cc(N(C)C(=O)CCCC#N)c1)(C1CCC1)C(C#N)=C(N)O2 (stereo not drawn) [Compound 2.700] |
| < 100 | – | Cc1n[nH]c2c1C(c1cc(Cl)cc(N(C)C(=O)CCCc3nnn[nH]3)c1)(C1CCC1)C(C#N)=C(N)O2 (stereo not drawn) [Compound 2.701] |
| < 100 | – | Cc1n[nH]c2c1C(c1cccc(Br)c1)(C(C)(F)F)C(C#N)=C(N)O2 (stereo not drawn) [Compound 2.702] |
| < 100 | – | Cc1n[nH]c2c1C(c1cc(Br)cc(Br)c1)(C1CC(F)(F)C1)C(C#N)=C(N)O2 (stereo not drawn) [Compound 2.703] |
| < 100 | – | Cc1n[nH]c2c1C(c1cc(C#N)cc(NS(C)(=O)=O)c1)(C1CCC1)C(C#N)=C(N)O2 (stereo not drawn) [Compound 2.704] |
| < 10 | – | COC(=O)c1ccc(-c2cc(C#N)cc(C3(C(C)C)C(C#N)=C(N)Oc4[nH]nc(C)c43)c2)s1 (stereo not drawn) [Compound 2.705] |
| < 10 | – | COC(=O)c1ccc(-c2cc(C#N)cc(C3(C(C)C)C(C#N)=C(N)Oc4[nH]nc(C)c43)c2)o1 (stereo not drawn) [Compound 2.706] |
| < 1000 | – | Cc1n[nH]c2c1C(c1cc(C#N)cc(C#N)c1)(C1CC(F)(F)C1)C(C#N)=C(N)O2 (stereo not drawn) [Compound 2.707] |
| < 10000 | – | Cc1n[nH]c2c1C(c1ccc(CC#N)c(-c3nnn[nH]3)c1)(C1CCC1)C(C#N)=C(N)O2 (stereo not drawn) [Compound 2.708] |
| < 100 | – | Cc1n[nH]c2c1C(c1cc(CCC#N)cc(-c3nnn[nH]3)c1)(C(C)C)C(C#N)=C(N)O2 (stereo not drawn) [Compound 2.710] |
| < 100 | – | Cc1n[nH]c2c1C(c1cc(CCCC#N)cc(-c3nnn[nH]3)c1)(C(C)C)C(C#N)=C(N)O2 (stereo not drawn) [Compound 2.711] |
| < 100 | – | Cc1n[nH]c2c1C(c1cc(C#N)cc(C#N)c1)(C1CC(F)C1)C(C#N)=C(N)O2 (stereo not drawn) [Compound 2.714] |
| < 1000 | – | Cc1n[nH]c2c1C(c1cc(CCCc3nnn[nH]3)cc(-c3nnn[nH]3)c1)(C(C)C)C(C#N)=C(N)O2 (stereo not drawn) [Compound 2.715] |
| < 10000 | – | Cc1n[nH]c2c1C(c1cc(CCc3nnn[nH]3)cc(-c3nnn[nH]3)c1)(C(C)C)C(C#N)=C(N)O2 (stereo not drawn) [Compound 2.716] |
| < 100 | – | Cc1n[nH]c2c1C(c1cc(C#N)cc(N(C)C(=O)c3cccc(C(=O)O)c3)c1)(C(C)C)C(C#N)=C(N)O2 (stereo not drawn) [Compound 2.717] |
| < 100 | – | Cc1n[nH]c2c1C(c1cc(C#N)cc(N(C)C(=O)CCc3nnn[nH]3)c1)(C1CCC1)C(C#N)=C(N)O2 (stereo not drawn) [Compound 2.718] |
| < 100 | – | CCOC(=O)CS(=O)(=O)N(C)c1cc(C#N)cc(C2(C3CCC3)C(C#N)=C(N)Oc3[nH]nc(C)c32)c1 (stereo not drawn) [Compound 2.719] |
| < 100 | – | Cc1n[nH]c2c1C(c1cc(C#N)cc(N(C)C(=O)Cc3nnn[nH]3)c1)(C(C)C)C(C#N)=C(N)O2 (stereo not drawn) [Compound 2.721] |
| < 100 | – | Cc1n[nH]c2c1C(c1cc(C#N)cc(N(C)C(=O)CCCc3nnn[nH]3)c1)(C(C)C)C(C#N)=C(N)O2 (stereo not drawn) [Compound 2.722] |
| < 100 | – | COC(=O)CCS(=O)(=O)N(C)c1cc(C#N)cc(C2(C3CCC3)C(C#N)=C(N)Oc3[nH]nc(C)c32)c1 (stereo not drawn) [Compound 2.723] |
| < 100 | – | Cc1n[nH]c2c1C(c1cc(C#N)cc(N(C)S(=O)(=O)CC#N)c1)(C1CCC1)C(C#N)=C(N)O2 (stereo not drawn) [Compound 2.724] |

| EC50 [1] [nM] | EC50 [2] [nM] | SMILES |
| --- | --- | --- |
| < 100 | – | CCOC(=O)CS(=O)(=O)N(C)c1cc(C#N)cc(C2(C(C)C)C(C#N)=C(N)Oc3[nH]nc(C)c32)c1 (stereo not drawn) [Compound 2.725] |
| < 100 | – | COC(=O)CCS(=O)(=O)N(C)c1cc(C#N)cc(C2(C(C)C)C(C#N)=C(N)Oc3[nH]nc(C)c32)c1 (stereo not drawn) [Compound 2.726] |
| < 100 | – | Cc1n[nH]c2c1C(c1cc(C#N)cc(N(C)C(=O)CCCc3nnn[nH]3)c1)(C1CCC1)C(C#N)=C(N)O2 (stereo not drawn) [Compound 2.727] |
| < 10 | – | Cc1n[nH]c2c1C(c1cc(Br)cc(N(C)C(=O)Cc3nnn[nH]3)c1)(C1CCC1)C(C#N)=C(N)O2 (stereo not drawn) [Compound 2.730] |
| < 100 | – | Cc1n[nH]c2c1C(c1cc(C#N)cc(N(C)S(=O)(=O)CC(=O)O)c1)(C1CCC1)C(C#N)=C(N)O2 (stereo not drawn) [Compound 2.731] |
| < 100 | – | Cc1n[nH]c2c1C(c1cc(C#N)cc(N(C)S(=O)(=O)CC(=O)O)c1)(C(C)C)C(C#N)=C(N)O2 (stereo not drawn) [Compound 2.732] |
| < 100 | – | Cc1n[nH]c2c1C(c1cc(C#N)cc(NS(=O)(=O)C(F)(F)F)c1)(C1CCC1)C(C#N)=C(N)O2 (stereo not drawn) [Compound 2.733] |
| < 100 | – | Cc1n[nH]c2c1C(c1ccc(CCc3nnn[nH]3)c(C#N)c1)(C(C)C)C(C#N)=C(N)O2 (stereo not drawn) [Compound 2.734] |
| < 10000 | – | Cc1n[nH]c2c1C(c1cc(Cc3nnn[nH]3)cc(-c3nnn[nH]3)c1)(C(C)C)C(C#N)=C(N)O2 (stereo not drawn) [Compound 2.735] |
| < 1000 | – | Cc1n[nH]c2c1C(c1ccc(CCC#N)c(-c3nnn[nH]3)c1)(C(C)C)C(C#N)=C(N)O2 (stereo not drawn) [Compound 2.736] |
| < 100 | – | Cc1n[nH]c2c1C(c1cc(C#N)cc(Cc3nnn[nH]3)c1)(C(C)C)C(C#N)=C(N)O2 (stereo not drawn) [Compound 2.738] |
| – | < 10000 | CCC1(c2cc(F)c(F)cc2F)C(C#N)=C(N)Oc2[nH]nc(C)c21 (stereo not drawn) [Compound 3.3] |
| – | < 10000 | CCC1(c2cc(F)cc(F)c2F)C(C#N)=C(N)Oc2[nH]nc(C)c21 (stereo not drawn) [Compound 3.4] |
| – | < 10 | Cc1n[nH]c2c1C(c1ccc(-c3cccs3)s1)(C1CCC1)C(C#N)=C(N)O2 (stereo not drawn) [Compound 4.1] |
| – | < 10 | Cc1n[nH]c2c1C(c1ccc(-c3ccco3)s1)(C1CCC1)C(C#N)=C(N)O2 (stereo not drawn) [Compound 4.3] |
| – | < 10 | Cc1n[nH]c2c1C(c1cc(Cl)c3c(c1)OCCO3)(C1CCC1)C(C#N)=C(N)O2 (stereo not drawn) [Compound 4.5] |
| – | < 10 | Cc1n[nH]c2c1C(c1ccc(-c3cccc(Cl)c3)s1)(C1CCC1)C(C#N)=C(N)O2 (stereo not drawn) [Compound 4.6] |
| – | < 10 | Cc1n[nH]c2c1C(c1cc3cc(Cl)ccc3o1)(C1CCC1)C(C#N)=C(N)O2 (stereo not drawn) [Compound 4.7] |
| – | < 10 | Cc1n[nH]c2c1C(c1ccc(-c3ccc(F)cc3)s1)(C1CCC1)C(C#N)=C(N)O2 (stereo not drawn) [Compound 4.8] |
| – | < 10 | Cc1n[nH]c2c1C(c1cc3cc(Cl)ccc3s1)(C1CCC1)C(C#N)=C(N)O2 (stereo not drawn) [Compound 4.9] |
| – | < 10 | Cc1n[nH]c2c1C(c1ccc(-c3ccccc3)s1)(C1CCC1)C(C#N)=C(N)O2 (stereo not drawn) [Compound 4.10] |
| – | < 10 | Cc1n[nH]c2c1C(c1cncc(Cl)c1)(C1CCC1)C(C#N)=C(N)O2 (stereo not drawn) [Compound 4.11] |
| – | < 10 | Cc1n[nH]c2c1C(c1cc(Cl)c3c(c1)CCO3)(C1CCC1)C(C#N)=C(N)O2 (stereo not drawn) [Compound 4.12] |
